Measured values taken from US10294212B2 (CURADEV PHARMA PRIVATE LTD., priority 2013, dated 2019).

Assays:
[1] = target: Human TDO (hTDO)-transfected CHO-K1 cells (Homo sapiens (Human), UniProt P48775); assay: CHO-K1 cell based TDO assay; settings: hTDO cellular assay
How it was run: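 Kynurenine output was read by LC/MS/MS after TCA precipitation and 15 min at 65° C. Before that, CHO-K1 cells stably carrying human TDO2 were incubated 2 h with compounds (typically 31 μM to 10 nM) and 80 μM L-tryptophan in HBSS. Decrease versus DMSO vehicle gave percent inhibition, then IC50.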

IDO1 in HeLa cells = IDO1 in HeLa cells (Homo sapiens (Human), UniProt P14902); assay: HeLa cell based IDO1 assay (IFNγ-induced, KYN in supernatant)
Sequence of IDO1 in HeLa cells (P14902 whole entry): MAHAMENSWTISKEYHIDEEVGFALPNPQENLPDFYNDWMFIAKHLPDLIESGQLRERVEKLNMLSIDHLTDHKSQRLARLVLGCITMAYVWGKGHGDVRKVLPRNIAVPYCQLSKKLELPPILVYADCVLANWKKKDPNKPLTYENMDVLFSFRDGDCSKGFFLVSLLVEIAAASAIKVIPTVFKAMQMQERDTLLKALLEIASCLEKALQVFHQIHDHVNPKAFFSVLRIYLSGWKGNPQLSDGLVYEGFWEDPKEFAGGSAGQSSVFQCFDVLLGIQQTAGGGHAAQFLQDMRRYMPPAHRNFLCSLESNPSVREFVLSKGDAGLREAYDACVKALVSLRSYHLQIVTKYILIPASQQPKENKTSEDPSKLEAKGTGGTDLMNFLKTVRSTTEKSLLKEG
Experimental: HeLa cells were obtained from ATCC and maintained in DMEM supplemented with sodium bicarbonate (2.1 g/L), HEPES (4.1 g/L), L-glutamine (2 mM), non-essential amino acid (84 mg/L) and fetal bovine serum (10% FBS) and maintained at 95% humidity and 5% CO2 in a 37° C. incubator. Unless otherwise stated, all materials were procured from Sigma. Upon incubation with gamma-interferon (IFNγ ), HeLa cells express IDO1, which catalyzes the formation of N-formyl kynurenine from tryptophan present in growth medium. The assay was performed as follows:
Cells were plated in medium (300 μL) at a density of 0.1 million per well of a 48 well plate and hIDO1 was induced by overnight treatment with IFNγ (50 ng/mL) (Peprotech, USA). The following day, cells were washed to remove IFNγ and were incubated with specific concentrations of test compounds (typically 10 μM to 1 nM, final volume 300 μL) in Hanks Balanced Salt Solution (HBSS) containing 80 μM L-tryptophan. Following incubation, supernatant (150 μL) was transferred to a 96 well plate into which 30%TCA (304) was added and the contents further incubated at 65° C. for 15 min to fully convert N-formylkynurenine to kynurenine. The reaction mixture was then centrifuged to remove sediments and the KYN in the supernatant was estimated by UV-visible absorption spectroscopy at 360 nm using a Waters HPLC system fitted with a C-18 column. (Xiangdong Liu et al. Blood 2010, Vol-117, 3520-30; Sono described above).
Percent inhibition at each concentration of test compounds was determined by estimating the decrease in KYN with reference to the reaction control with 1% DMSO vehicle. Data were analyzed using nonlinear regression to generate IC50 values using Graph Pad Prism® 5.

[2] = target: Human indoleamine 2,3-dioxygenase1 (hIDO1) (Homo sapiens (Human), UniProt P14902); assay: In-vitro IDO1 enzyme assay (conversion of L-tryptophan to KYN); type: biochemical; settings: read-out: IC50 (IDO1) Enz
Sequence of Human indoleamine 2,3-dioxygenase1 (hIDO1) (P14902 whole entry): as above
How it was run: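 Kynurenine formation quantified by HPLC absorbance at 360 nm or LC/MS/MS after TCA quench and 15 min at 65 °C. Reaction: 10 nM N-His hIDO1, 30 μM tryptophan, ascorbate/methylene blue/catalase, pH 6.5 phosphate buffer, 37 °C for 30 min. Inhibition relative to 1% DMSO vehicle, fitted to IC50.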

Sequence of Human TDO (hTDO)-transfected CHO-K1 cells (P48775 whole entry): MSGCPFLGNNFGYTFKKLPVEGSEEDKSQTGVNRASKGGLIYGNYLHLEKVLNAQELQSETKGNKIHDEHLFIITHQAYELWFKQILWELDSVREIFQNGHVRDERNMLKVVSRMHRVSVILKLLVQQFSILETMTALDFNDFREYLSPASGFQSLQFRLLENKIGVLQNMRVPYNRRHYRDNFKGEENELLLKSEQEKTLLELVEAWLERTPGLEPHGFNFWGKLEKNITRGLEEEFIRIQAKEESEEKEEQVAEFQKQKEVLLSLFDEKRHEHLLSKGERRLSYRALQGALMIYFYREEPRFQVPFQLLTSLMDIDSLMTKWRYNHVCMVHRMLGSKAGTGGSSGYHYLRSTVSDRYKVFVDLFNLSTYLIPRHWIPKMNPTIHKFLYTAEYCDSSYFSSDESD

| IC50 [1] [µM] | IC50 (IDO1 in HeLa cells) [µM] | IC50 [2] [µM] | Compound |
| --- | --- | --- | --- |
| < 0.5 | < 0.2 | < 0.2 | Nc1oc2cnccc2c1Nc1ccc(F)c(Br)c1 [Compound 58, N^3-(3-Bromo-4-fluorophenyl)furo[2,3-c]pyridine-2,3-diamine] |
| < 0.5 | < 0.2 | < 0.2 | N#Cc1nccc2c(Nc3ccc(F)c(Cl)c3)c(N)oc12 [Compound 103, 2-Amino-3-((3-chloro-4-fluorophenyl)amino)furo[2,3-c]pyridine-7-carbonitrile] |
| < 0.5 | < 0.2 | < 0.2 | Nc1sc2ccccc2c1Nc1cccc(Cl)c1 [Compound 234, N^3-(3-Chlorophenyl)benzo[b]thiophene-2,3-diamine] |
| 0.5 to 2 | < 0.2 | < 0.2 | Nc1oc2c(N3CCOCC3)nccc2c1Nc1ccc(F)c(Cl)c1 [Compound 245, N^3-(3-Chloro-4-fluorophenyl)-7-morpholinofuro[2,3-c]pyridine-2,3-diamine] |
| 0.5 to 2 | < 0.2 | < 0.2 | COC(=O)c1ccc(-c2nccc3c(Nc4ccc(F)c(Cl)c4)c(N)oc23)cc1 [Compound 152, Methyl 4-(2-amino-3-((3-chloro-4-fluorophenyl)amino)furo[2,3-c]pyridin-7-yl)benzoate] |
| < 0.5 | < 0.2 | < 0.2 | Nc1oc2c(Br)nccc2c1Nc1ccc(F)c(Cl)c1 [Compound 159, 7-Bromo-N^3-(3-chloro-4-fluorophenyl)furo[2,3-c]pyridine-2,3-diamine] |
| 0.5 to 2 | < 0.2 | < 0.2 | Nc1sc2c(-c3ccncc3)cccc2c1Nc1ccc(F)c(Cl)c1 [Compound 213, N^3-(3-Chloro-4-fluorophenyl)-7-(pyridin-4-yl)benzo[b]thiophene-2,3-diamine] |
| 0.5 to 2 | < 0.2 | < 0.2 | Cc1cc(Nc2c(N)oc3cnccc23)ccc1F [Compound 27, N^3-(4-Fluoro-3-methylphenyl)furo[2,3-c]pyridine-2,3-diamine] |
| > 2 | < 0.2 | < 0.2 | Nc1oc2cnccc2c1Nc1cccc(C2CC2)c1 [Compound 42, N^3-(3-Cyclopropylphenyl)furo[2,3-c]pyridine-2,3-diamine] |
| 0.5 to 2 | < 0.2 | < 0.2 | Cc1cc(-c2nc(F)cc3c(Nc4cccc(Cl)c4)c(N)oc23)ccn1 [Compound 254, N^3-(3-Ahlorophenyl)-5-fluoro-7-(2-methylpyridin-4-yl)furo[2,3-c]pyridine-2,3-diamine] |
| > 2 | < 0.2 | < 0.2 | Nc1oc2c(-c3ccnc(N4CCOCC4)c3)nccc2c1Nc1ccc(F)c(Cl)c1 [Compound 154, N^3-(3-Chloro-4-fluorophenyl)-7-(2-morpholinopyridin-4-yl)furo[2,3-c]pyridine-2,3-diamine] |
| 0.5 to 2 | < 0.2 | < 0.2 | Nc1oc2c(C3CCCCC3)nccc2c1Nc1ccc(F)c(Cl)c1 [Compound 108, N^3-(3-Chloro-4-fluorophenyl)-7-cyclohexylfuro[2,3-c]pyridine-2,3-diamine] |
| 0.5 to 2 | < 0.2 | < 0.2 | Nc1oc2cnccc2c1Nc1cccc(I)c1 [Compound 20, N^3-(3-Iodophenyl)furo[2,3-c]pyridine-2,3-diamine] |
| 0.5 to 2 | < 0.2 | < 0.2 | Nc1oc2c(-c3ccncc3)nccc2c1Nc1ccc(F)c(C(F)(F)F)c1 [Compound 192, N^3-(4-Fluoro-3-(trifluoromethyl)phenyl)-7-(pyridin-4-yl)furo[2,3-c]pyridine-2,3-diamine] |
| 0.5 to 2 | < 0.2 | < 0.2 | Nc1oc2c(-c3ccnc(C(=O)N4CCCCC4)c3)nccc2c1Nc1ccc(F)c(Cl)c1 [Compound 271, (4-(2-Amino-3-((3-chloro-4-fluorophenyl)amino)furo[2,3-c]pyridin-7-yl)pyridin-2-yl)(piperidin-1-yl)methanone] |
| < 0.5 | < 0.2 | < 0.2 | Nc1oc2cnc(F)cc2c1Nc1cccc(Cl)c1 [Compound 220, N^3-(3-Chlorophenyl)-5-fluorofuro[2,3-c]pyridine-2,3-diamine] |
| > 2 | < 0.2 | < 0.2 | Cc1cc(-c2cccc3c(Nc4ccc(F)c(Cl)c4)c(N)sc23)ccn1 [Compound 240, N^3-(3-Chloro-4-fluorophenyl)-7-(2-methylpyridin-4-yl)benzo[b]thiophene-2,3-diamine] |
| < 0.5 | < 0.2 | < 0.2 | Cc1cc(-c2nc(F)cc3c(Nc4ccc(F)cc4)c(N)oc23)ccn1 [Compound 241, 5-Fluoro-N^3-(4-fluorophenyl)-7-(2-methylpyridin-4-yl)furo[2,3-c]pyridine-2,3-diamine] |
| > 2 | < 0.2 | < 0.2 | Nc1sc2ccccc2c1Nc1ccc2c(c1)OCO2 [Compound 236, N^3-(benzo[d][1,3]dioxol-5-yl)benzo[b]thiophene-2,3-diamine] |

| Compound | IC50 [1] [µM] | IC50 (IDO1 in HeLa cells) [µM] | IC50 [2] [µM] |
| --- | --- | --- | --- |
| Nc1sc2ccc(Cl)cc2c1Nc1ccc(F)cc1 [Compound 131, 5-Chloro-N^3-(4-fluorophenyl)benzo[b]thiophene-2,3-diamine] | 0.5 to 2 | 0.2 to 1 | 0.2 to 1 |
| COc1cc(Nc2c(N)oc3cnccc23)ccc1Cl [Compound 9, N^3-(4-Chloro-3-methoxyphenyl)furo[2,3-c]pyridine-2,3-diamine] | 0.5 to 2 | 0.2 to 1 | > 1 |
| Nc1oc2cnccc2c1Nc1cc(Cl)ccc1Cl [Compound 55, N^3-(2,5-Dichlorophenyl)furo[2,3-c]pyridine-2,3-diamine] | > 2 | < 0.2 | > 1 |
| CCc1cccc(Nc2c(N)oc3cnccc23)c1 [Compound 19, N^3-(3-Ethylphenyl)furo[2,3-c]pyridine-2,3-diamine] | > 2 | 0.2 to 1 | 0.2 to 1 |
| Nc1oc2cnccc2c1Nc1ccc(F)c(Cl)c1F [Compound 44, N^3-(3-Chloro-2,4-difluorophenyl)furo[2,3-c]pyridine-2,3-diamine] | 0.5 to 2 | < 0.2 | 0.2 to 1 |
| CCOc1cc2c(Nc3ccc(F)c(Cl)c3)c(N)oc2c(-c2ccccc2)n1 [Compound 105, N^3-(3-Chloro-4-fluorophenyl)-5-ethoxy-7-phenylfuro[2,3-c]pyridine-2,3-diamine] | > 2 | > 1 | 0.2 to 1 |
| Cc1ccc(Nc2c(N)oc3cnccc23)cc1Br [Compound 21, N^3-(3-Bromo-4-methylphenyl)furo[2,3-c]pyridine-2,3-diamine] | 0.5 to 2 | < 0.2 | 0.2 to 1 |
| Nc1sc2ccc(Cl)cc2c1Nc1ccc(F)c(C(F)(F)F)c1 [Compound 132, 5-Chloro-N^3-(4-fluoro-3-(trifluoromethyl)phenyl)benzo[b]thiophene-2,3-diamine] | > 2 | 0.2 to 1 | 0.2 to 1 |
| O=C(Nc1oc2cnccc2c1Nc1ccc(F)c(Cl)c1)OCc1ccccc1 [Compound 139, Benzyl (3-((3-chloro-4-fluorophenyl)amino)furo[2,3-c]pyridin-2-yl)carbamate] | 0.5 to 2 | > 1 | > 1 |
| Cc1ccc2sc(N)c(Nc3ccc(F)c(Cl)c3)c2c1 [Compound 214, N^3-(3-Chloro-4-fluorophenyl)-5-methylbenzo[b]thiophene-2,3-diamine] | > 2 | < 0.2 | 0.2 to 1 |
| Cc1cc(C)cc(Nc2c(N)oc3cnccc23)c1 [Compound 14, N^3-(3,5-Dimethylphenyl)furo[2,3-c]pyridine-2,3-diamine] | 0.5 to 2 | < 0.2 | 0.2 to 1 |
| Nc1oc2cnccc2c1Nc1cccc(Cl)c1 [Compound 8, N^3-(3-Chlorophenyl)furo[2,3-c]pyridine-2,3-diamine] | 0.5 to 2 | < 0.2 | 0.2 to 1 |
| Nc1oc2cnccc2c1Nc1ccccc1 [Compound 3, N^3-Phenylfuro[2,3-c]pyridine-2,3-diamine] | < 0.5 | < 0.2 | 0.2 to 1 |
